Results from patent publication US8877748B2, “Heterocyclic fused anthraquinone derivatives, manufacturing method and pharmaceutical composition using thereof” (National Defense Medical Center, priority 2012, dated 2014).

Tests used:
human tumor cell lines = experiment: NCI one-dose screening, Mean / Delta / Range of growth percent over all tested cell lines; assay type: cell-based; settings: 10 μM
MOLT-4 = experiment: NCI one-dose screening, leukemia MOLT-4; assay type: cell-based, human; settings: 10 μM
NCl/ADR-RES = experiment: NCI one-dose screening, breast cancer NCl/ADR-RES; assay type: cell-based, human; settings: 10 μM; listed under Ovarian cancer
SN12C = experiment: NCI one-dose screening, renal cancer SN12C; assay type: cell-based, human; settings: 10 μM
OVCAR-4 = experiment: NCI one-dose screening, ovarian cancer OVCAR-4; assay type: cell-based, human; settings: 10 μM
SNB-75 = experiment: NCI one-dose screening, CNS cancer SNB-75; assay type: cell-based, human; settings: 10 μM
SF-268 = experiment: NCI one-dose screening, CNS cancer SF-268; assay type: cell-based, human; settings: 10 μM
SF-295 = experiment: NCI one-dose screening, CNS cancer SF-295; assay type: cell-based, human; settings: 10 μM
UACC-62 = experiment: NCI one-dose screening, melanoma UACC-62; assay type: cell-based, human; settings: 10 μM
HOP-62 = experiment: NCI one-dose screening, non-small cell lung cancer HOP-62; assay type: cell-based, human; settings: 10 μM
IGROV1 = experiment: NCI one-dose screening, ovarian cancer IGROV1; assay type: cell-based, human; settings: 10 μM
SF-539 = experiment: NCI one-dose screening, CNS cancer SF-539; assay type: cell-based, human; settings: 10 μM
PRMI-8226 cell line = experiment: NCI one-dose screening, leukemia PRMI-8226; assay type: cell-based, human; settings: 10 μM
SNB-19 = experiment: NCI one-dose screening, CNS cancer SNB-19; assay type: cell-based, human; settings: 10 μM
[1] = NCI one-dose screening, renal cancer A489; assay type: cell-based, human; settings: 10 μM
PC-3 = experiment: NCI one-dose screening, prostate cancer PC-3; assay type: cell-based, human; settings: 10 μM
SK-MEL-28 = experiment: NCI one-dose screening, melanoma SK-MEL-28; assay type: cell-based, human; settings: 10 μM
COLO 205 = experiment: NCI one-dose screening, colon cancer COLO 205; assay type: cell-based, human; settings: 10 μM
UACC-257 = experiment: NCI one-dose screening, melanoma UACC-257; assay type: cell-based, human; settings: 10 μM
U251 = experiment: NCI one-dose screening, CNS cancer U251; assay type: cell-based, human; settings: 10 μM
[2] = system: PC-3 prostate cancer cell line; experiment: SRB assay cell viability, PC-3 prostate cancer cell line; assay type: cell-based, human; settings: Homo sapiens, PC-3 prostate cancer cell line, Table II prints no unit, μM printed, read-out: SRB assay: 50% inhibition of cancer cell proliferation of sample concentration (IC50) of PC-3 prostate cancer cell line
LOX IMVI = experiment: NCI one-dose screening, melanoma LOX IMVI; assay type: cell-based, human; settings: 10 μM
HCT-15 = experiment: NCI one-dose screening, colon cancer HCT-15; assay type: cell-based, human; settings: 10 μM
786-O = experiment: NCI one-dose screening, renal cancer 786-O; assay type: cell-based, human; settings: 10 μM
BT-549 = experiment: NCI one-dose screening, breast cancer BT-549; assay type: cell-based, human; settings: 10 μM
CAKI-1 = experiment: NCI one-dose screening, renal cancer CAKI-1; assay type: cell-based, human; settings: 10 μM
HL-60, TB = experiment: NCI one-dose screening, leukemia HL-60, TB; assay type: cell-based, human; settings: 10 μM
NCI-H322M = experiment: NCI one-dose screening, non-small cell lung cancer NCI-H322M; assay type: cell-based, human; settings: 10 μM; Non-small cell lung cancer
OVCAR-3 = experiment: NCI one-dose screening, ovarian cancer OVCAR-3; assay type: cell-based, human; settings: 10 μM
HOP-92 = experiment: NCI one-dose screening, non-small cell lung cancer HOP-92; assay type: cell-based, human; settings: 10 μM
MALME-3M = experiment: NCI one-dose screening, melanoma MALME-3M; assay type: cell-based, human; settings: 10 μM
RXF, 393 = experiment: NCI one-dose screening, renal cancer RXF, 393; assay type: cell-based, human; settings: 10 μM
SK-MEL-5 = experiment: NCI one-dose screening, melanoma SK-MEL-5; assay type: cell-based, human; settings: 10 μM
OVCAR-8 = experiment: NCI one-dose screening, ovarian cancer OVCAR-8; assay type: cell-based, human; settings: 10 μM
SR = experiment: NCI one-dose screening, leukemia SR; assay type: cell-based, human; settings: 10 μM
EKVX = experiment: NCI one-dose screening, non-small cell lung cancer EKVX; assay type: cell-based, human; settings: 10 μM
KM12 = experiment: NCI one-dose screening, colon cancer KM12; assay type: cell-based, human; settings: 10 μM
M14 = experiment: NCI one-dose screening, melanoma M14; assay type: cell-based, human; settings: 10 μM
SK-OV-3 = experiment: NCI one-dose screening, ovarian cancer SK-OV-3; assay type: cell-based, human; settings: 10 μM
A549/ATCC = experiment: NCI one-dose screening, non-small cell lung cancer A549/ATCC; assay type: cell-based, human; settings: 10 μM
HCC-2998 = experiment: NCI one-dose screening, colon cancer HCC-2998; assay type: cell-based, human; settings: 10 μM
NCI-H23 = experiment: NCI one-dose screening, non-small cell lung cancer NCI-H23; assay type: cell-based, human; settings: 10 μM
DU145 = experiment: NCI one-dose screening, prostate cancer DU145; assay type: cell-based, human; settings: 10 μM
UO-31 = experiment: NCI one-dose screening, renal cancer UO-31; assay type: cell-based, human; settings: 10 μM
NCI-H522 = experiment: NCI one-dose screening, non-small cell lung cancer NCI-H522; assay type: cell-based, human; settings: 10 μM
MDA-MB-468 = experiment: NCI one-dose screening, breast cancer MDA-MB-468; assay type: cell-based, human; settings: 10 μM
MCF7 = experiment: NCI one-dose screening, breast cancer MCF7; assay type: cell-based, human; settings: 10 μM
MDA, -MB-435 = experiment: NCI one-dose screening, breast cancer MDA, -MB-435; assay type: cell-based, human; settings: 10 μM; listed under Melanoma
HCT-116 = experiment: NCI one-dose screening, colon cancer HCT-116; assay type: cell-based, human; settings: 10 μM
SK-MEL-2 = experiment: NCI one-dose screening, melanoma SK-MEL-2; assay type: cell-based, human; settings: 10 μM
NCI-H460 = experiment: NCI one-dose screening, non-small cell lung cancer NCI-H460; assay type: cell-based, human; settings: 10 μM
MDA-MB-231/ATCC = experiment: NCI one-dose screening, breast cancer MDA-MB-231/ATCC; assay type: cell-based, human; settings: 10 μM
T-47D = experiment: NCI one-dose screening, breast cancer T-47D; assay type: cell-based, human; settings: 10 μM
CCRF-CEM = experiment: NCI screening platform one-dose single concentration screening, leukemia CCRF-CEM; assay type: cell-based, human; settings: 10 μM
NCI-H226 = experiment: NCI one-dose screening, non-small cell lung cancer NCI-H226; assay type: cell-based, human; settings: 10 μM
TK-10 = experiment: NCI one-dose screening, renal cancer TK-10; assay type: cell-based, human; settings: 10 μM
K562cell line = experiment: NCI one-dose screening, leukemia K562; assay type: cell-based, human; settings: 10 μM
HS 578-T = experiment: NCI one-dose screening, breast cancer HS 578-T; assay type: cell-based, human; settings: 10 μM; Breast cancer

## O=C1c2ccccc2C(=O)c2c1cc(N1CCOCC1)c1nsnc21 [C10, 4-morpholino-anthra[2,1-c][1,2,5] thiadiazol-6,11-dione]
Human tumor cell lines; delta over all cell lines
  Growth Percent Delta: 67.45%
Human tumor cell lines; mean over all cell lines
  Growth Percent Mean: 67.97%
Human tumor cell lines; range over all cell lines
  Growth Percent Range: 130.76%
MOLT-4
  Growth Percent MOLT-4: 47.64%
NCl/ADR-RES
  Growth Percent NCI/ADR-RES: 43.58%
SN12C
  Growth Percent SN12C: 71.73%
OVCAR-4
  Growth Percent OVCAR-4: 28.69%
SNB-75
  Growth Percent SNB-75: 51.11%
SF-268
  Growth Percent SF-268: 75.83%
SF-295
  Growth Percent SF-295: 95.84. Percent
UACC-62
  Growth Percent UACC-62: 62.43%
HOP-62
  Growth Percent HOP-62: 60.63%
IGROV1
  Growth Percent IGROV1: 54.88%
SF-539
  Growth Percent SF-539: 88.62%
PRMI-8226 cell line
  Growth Percent RPMI-8226: 61.17%
SNB-19
  Growth Percent SNB-19: 84.82%
[1]
  Growth Percent A498: 88.30%
PC-3
  Growth Percent PC-3: 56.59%
SK-MEL-28
  Growth Percent SK-MEL-28: 104.55%
COLO 205
  Growth Percent COLO 205: 104.19%
UACC-257
  Growth Percent UACC-257: 79.36%
U251
  Growth Percent U251: 59.35%
[2]
  IC50: 3.75 µM
LOX IMVI
  Growth Percent LOX IMVI: 13.57%
HCT-15
  Growth Percent HCT-15: 55.97%
786-O
  Growth Percent 786-0: 109.16%
BT-549
  Growth Percent BT-549: 93.78%
CAKI-1
  Growth Percent CAKI-1: 61.73%
HL-60, TB
  Growth Percent HL-60(TB): 66.73%
NCI-H322M
  Growth Percent NCI-H322M: 98.00%
OVCAR-3
  Growth Percent OVCAR-3: 6.64%
HOP-92
  Growth Percent HOP-92: 90.59%
MALME-3M
  Growth Percent MALME-3M: 61.99%
other
  melting point: 259 to 260 °C
RXF, 393
  Growth Percent RXF 393: 98.14%
SK-MEL-5
  Growth Percent SK-MEL-5: 15.98%
OVCAR-8
  Growth Percent OVCAR-8: 43.29%
SR
  Growth Percent SR: 68.92%
EKVX
  Growth Percent EKVX: 84.52%
KM12
  Growth Percent KM12: 83.91%
M14
  Growth Percent M14: 75.06%
SK-OV-3
  Growth Percent SK-OV-3: 104.65%
A549/ATCC
  Growth Percent A549/ATCC: 100.58%
HCC-2998
  Growth Percent HCC-2998: 107.48%
NCI-H23
  Growth Percent NCI-H23: 39.65%
DU145
  Growth Percent DU145: 68.98%
UO-31
  Growth Percent UO-31: 53.93%
NCI-H522
  Growth Percent NCI-H522: 79.03%
MDA-MB-468
  Growth Percent MDA-MB-468: 45.59%
MCF7
  Growth Percent MCF7: 55.12%
MDA, -MB-435
  Growth Percent MDA-MB-435: 0.52%
HCT-116
  Growth Percent HCT-116: 18.89%
SK-MEL-2
  Growth Percent SK-MEL-2: 88.38%
NCI-H460
  Growth Percent NCI-H460: 88.64%
MDA-MB-231/ATCC
  Growth Percent MDA-MB-231/ATCC: 39.16%
T-47D
  Growth Percent T-47D: 60.04%
CCRF-CEM
  Growth Percent CCRF-CEM: 48.31%
NCI-H226
  Growth Percent NCI-H226: 87.42%
TK-10
  Growth Percent TK-10: 131.28%
K562cell line
  Growth Percent K562: 48.27%
HS 578-T
  Growth Percent HS 578T: 88.35%
